The nature of data set [1]: Compound stability in mouse plasma. Type of data set: in vitro ADME. The following applies: serum (method text and assay name say plasma), 37° C., pH 7.4. As for the experimental part:
Compounds were assayed for stability in mouse and rat plasma under the following conditions. Plasma was adjusted to pH 7.4. DMSO stocks at 10 mM concentration were prepared for the test compounds. Aliquots of the DMSO solutions were dosed into 1 mL of plasma, which had been pre-warmed to 37° C., at a final test compound concentration of 10 μM. The vials were kept in a benchtop Thermomixer® (Eppendorf, Hauppauge, N.Y.) for the duration of the experiment. Aliquots (100 μL) were taken at each timepoint and added to a 96-well plate that had been pre-filled with 300 μL of an acetonitrile solution containing mixture of the internal standards (metoprolol, propranalol and warfarin each at 500 ng/mL). Samples were stored at 4° C. until the end of the experiment. After the final timepoint was sampled, the plate was mixed and then centrifuged at 3,000 rpm for 10 minutes. Aliquots of the supernatant were removed and analyzed by LC-HRAMS.

Data set [2] concerns GMPPNP-loaded H-Ras or GTP-loaded K-Ras. The experiment in a line: Fluorescence polarization competition assay with TAMRA-labeled probe R4007. In kind it is binding, human. The following applies: 120 nM Ras. In a few lines: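 120 nM GMPPNP-loaded H-Ras or GTP-loaded K-Ras was preincubated with 30 nM TAMRA-labeled R4007 probe for 20 min at room temperature in Tris pH 7.5 buffer with MgCl2, EDTA and Triton X-100. Serially diluted competitor was then added for 60 min. Polarization was read at 535/595 nm, with Ki from a one-site Ki fit and IC50 from probe displacement.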

Data set [3] deals with T1, SOS^cat catalyzed nucleotide exchange of H-Ras-GDP (Homo sapiens, UniProt P01112, G12V).
T1 construct: made in house; host or cells: E. coli BL21 (DE3)
The experiment in a line: SOS-mediated nucleotide exchange (MANT-GMPPNP fluorescence). The note with it: 25 μM of R4000, 1 μM H-Ras-GDP, 2 μM SOS^cat. In kind it is biochemical. The method, then: A sequence encoding the Ras exchanger motif and Cdc25 domains of human guanine nucleotide exchange factor SOS1 (amino acids 564-1049, designated as SOS^cat hereafter) was synthesized at GeneArt (Life Technologies, Carlsbad, Calif.) and subcloned into the pET28a expression vector (Novagen, Darmstadt, Germany) for expression in E. coli. The identity of the expression construct was confirmed by DNA sequencing. The plasmid encoding SOS^cat was transformed into BL21 (DE3). Cells were grown at 37° C. to an absorbance of 0.5 (OD600) in LB media containing 25 μg/mL of kanamycin and then transferred to 20° C. prior to induction with 0.1 mM IPTG. Cells were harvested 15 hours after induction and the pellet was lysed with B-PER Bacteria Extraction Reagent (Pierce/Thermo Scientific, Rockford, Ill.) containing EDTA-free protease inhibitors. […]
The SOS^cat protein was then dialysed into a buffer containing 25 mM Tris-HCl, pH 7.5, 150 mM NaCl, 5 mM MgCl2, and 1 mM DTT and stored at −80° C. […] Changes in fluorescence were measured by a fluorescence spectrometer (SpectraMax M3; Molecular Devices) in a black 96 half-area well plate (Corning 3686). Fluorescence was excited at λ=370 nm and emission was monitored at λ=450 nm every 20 s for over 30 minutes at 22° C. The nucleotide exchange rates were expressed as Vmax (milli-units per minute).

As a reminder, the half-life is the time in which the quantity being followed falls by half. What is called IC50 is the concentration at which inhibition is half-maximal.

SMILES strings stand for the structures. pIC50: −log10 of the molar value. Where two headings read alike, the source gives them in different places.

In turn, `CCC[C@H](NC(C)=O)C(=O)N[C@H]1CSCc2cccc(c2)CSC[C@@H](C(N)=O)NC(=O)CN(C)C(=O)[C@H](Cc2ccc(F)cc2)N(C)C(=O)[C@H](Cc2ccc(O)cc2)NC(=O)[C@H](Cc2c[nH]c3ncccc23)NC(=O)[C@H](c2ccccc2)NC(=O)[C@H](C)N(C)C(=O)[C@H](Cc2cnc[nH]2)NC(=O)[C@H](CCCCN)NC(=O)[C@H](C(C)(C)C)NC(=O)[C@H](Cc2ccc(O)cc2)NC1=O` (relative stereo) [Compound R4000, ACE-NVA-CYS*-TYR-TBG-LYS-HIS-NMA-PHG-7AW-TYR-MFF-SAR-CYS*-NH2] had a half-life at 10 μM in data set [1] of 5 h. In addition, in data set [2] (30 nM R4007, FIG. 7B, read-out: half-maximal inhibitory concentration (IC50) for displacement of R4007), the pIC50 was 7.70. Also, the IC50 in data set [2] (30 nM probe R4007, 60 minutes at room temperature, read-out: Probe displacement (nM IC50)) turned out to be 28.6 nM. For the same molecule, the “effect on the rate of SOS catalyzed nucleotide exchange” value in data set [3] is listed as “does not effect the rate of exchange”.

These data come from patent US10954287B2, “Ras binding peptides and methods of use” (Ra Pharmaceuticals, Inc., priority 2016, dated 2021).
